Reference: ChEMBL document CHEMBL1123219, “Functional cholesteryl binding agents: synthesis, characterization, and evaluation of antibody binding to modified phospholipid vesicles” (J Med Chem, 1986)

Legend:
[1] = species on record: Homo sapiens; test: Compound was tested for human IgG protein binding at 1 mg/mL
[2] = species on record: Homo sapiens; test: Compound was tested for human IgG protein stability at 100 ug/mL; format: functional
[3] = species on record: Homo sapiens; test: Compound was tested for human IgG protein binding at 100 ug/mL

| Binding [1] | Binding [3] | SMILES | Stability [2] |
| --- | --- | --- | --- |
| 31.9% | 55.9% | CC(C)CCCC(C)C1CCC2C3CC=C4CC(OCCCCCCN=C=S)CCC4(C)C3CCC12C (stereo not drawn) | 86.5% |
| 39.5% | 61.1% | CC(C)CCCC(C)C1CCC2C3CC=C4CC(OCCCCCCNC(=O)c5cccc(N6C(=O)C=CC6=O)c5)CCC4(C)C3CCC12C (stereo not drawn) | 86% |
| 43.3% | 60.4% | CC(C)CCCC(C)C1CCC2C3CC=C4CC(OCCCCCCSCc5ccc(C(=O)ON6C(=O)CCC6=O)cc5)CCC4(C)C3CCC12C (stereo not drawn) | 91.8% |
| 31.9% | 58.7% | CC(C)CCCC(C)C1CCC2C3CC=C4CC(OCCCCCCO)CCC4(C)C3CCC12C (stereo not drawn) | 86.4% |
| 46% | 69.5% | CC(C)CCCC(C)C1CCC2C3CC=C4CC(OCCCCCCC(=O)ON5C(=O)CCC5=O)CCC4(C)C3CCC12C (stereo not drawn) | 91% |
| 40.3% | 77.5% | CC(C)CCCC(C)C1CCC2C3CC=C4CC(OCCCCCC(=O)ON5C(=O)CCC5=O)CCC4(C)C3CCC12C (stereo not drawn) | 94.1% |
